Reference: patent publication US20230135945A1, “Method for Measuring Modulation in the Activity of a G Protein-Coupled Receptor” (CISBIO BIOASSAYS, priority 2017, published 2023)
Entries after “also recorded” stand apart in the source; their conditions may differ. Where no end group is shown, it is not given here.

Experiments:
[1] = target: T1, Delta Opioid GPCR (Homo sapiens, UniProt P41143); experiment: Activation test according to format 2B (TR-FRET, full Galpha bound to GTPγS vs empty form), membranes expressing Delta Opioid GPCR and Galphai protein; assay type: biochemical; settings: for TR-FRET signal (HTRF ratio), inhibition of agonist activation by antagonist: SNC162 fixed 10 nM
T1 construct: purchased Perkin Elmer 6110549400UA (HEK293)
T1 sequence (P41143 whole entry): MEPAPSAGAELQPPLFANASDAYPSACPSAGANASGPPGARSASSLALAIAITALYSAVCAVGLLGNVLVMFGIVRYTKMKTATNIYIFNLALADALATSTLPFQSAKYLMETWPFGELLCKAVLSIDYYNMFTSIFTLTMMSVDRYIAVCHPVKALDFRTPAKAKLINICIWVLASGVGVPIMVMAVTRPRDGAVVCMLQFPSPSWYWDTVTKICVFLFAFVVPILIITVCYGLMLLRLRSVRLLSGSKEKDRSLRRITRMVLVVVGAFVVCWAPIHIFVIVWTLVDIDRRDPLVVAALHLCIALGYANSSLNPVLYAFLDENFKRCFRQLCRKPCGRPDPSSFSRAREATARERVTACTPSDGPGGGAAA
Experimental: All reagents were diluted in TrisHCl 50 mM pH 7.4, MgCl2 10 mM, NaCl 10 mM, BSA 0.1% buffer. The membranes were prepared 4× to distribute 1 μg/well (except for other specifications). The GDP, GTP or GTPγS nucleotides and test compounds (agonists or antagonists) were pre-mixed and prepared 4× to obtain the final concentrations in the wells mentioned in the graphs. All anti-Galphai reagents used for detection were prepared 4× to target the following final concentrations in the following wells: sdAbs-d2 (50 nM); antibody SC13533-d2 (0.1 nM); antibody SC13533-Lumi4Tb (0.25 nM); antibody DSV36S-d2 (0.1 nM); antibody DSV36S-Lumi4Tb (0.25 nM); antibody DSV3S-d2 (10 nM); antibody DSV39S-d2 (10 nM); antibody DSV26S-Lumi4Tb (0.25 nM); peptide KB1753-Biotin (50 nM) in combination with streptavidin-XL665 (SA-XL) (25 nM) (pre-incubated 30 minutes at room temperature before distribution in plates). • Distribution of reagents in the 384-well plates: • Membranes expressing GPCR and G protein: 5 μL • Nucleotides (GDP or GTP or GTPγS) ±Test compounds (agonists and/or antagonists): 5 μL • Anti-Galphai-acceptor ligand (d2 or XL665): 5 μL • Anti-Galphai-donor ligand (Lumi4Tb): 5 μL
(§1) The plates were incubated at 21° C. for 3 h or 20 h and then the HTRF signal was measured on the PHERAstar reader (BMG Labtech) with the following configuration: • Module: HTRF (Excitation 337nm, Emission 665nm and 620nm) • Excitation: laser, 40 flashes • Reading window: delays: 60 μs—Integration: 400 μs
After activation of GPCR and Galpha protein by a GPCR agonist, the decrease in the proportion of the full Galpha protein form bound to GTP or bound to GTPγS (due to an increase in the proportion of the empty Galpha protein form) is specifically detected using two ligands labeled with RET partners. Activation of GPCR results in a decrease in the RET signal.
In a second step, the ability of a GPCR agonist to modulate the proportion of Galpha protein in empty form was tested with the same membranes and detection ligand pairs. HEK293 cell membranes expressing Delta Opioid GPCR and Galphai protein were incubated with GTPγS (10 nM) and GPCR agonist (SNC162) in increasing concentration. […] In a second condition, activation with a fixed concentration of GPCR agonist SNC162 (10 nM) was inhibited by an increasing concentration of GPCR antagonist (Naltrindole).
On the other hand, membranes (10 μg/wells) of HEK293 or CHO-K1 cells expressing the Delta Opioid GPCR and Galphai protein were incubated with GTPγS (100 nM) alone or in combination with a saturated fixed concentration (1 μM) of the receptor agonist (SNC162).
In a first condition, HEK293 cell membranes expressing Delta Opioid GPCR and Galphai protein were incubated with GTPγS (10 nM) and a GPCR agonist (SNC162) in increasing concentration.

[2] = target: T1, Delta Opioid GPCR; experiment: Activation test according to format 1A (TR-FRET, empty Galpha vs GDP-bound full form), HEK293 membranes; assay type: biochemical; settings: GDP 10 μM
Experimental: (§2) All reagents were diluted in TrisHCl 50 mM pH 7.4, MgCl2 10 mM, NaCl 10 mM, BSA 0.1% buffer. The membranes were prepared 4× to distribute 1 μg/well (except for other specifications). The GDP, GTP or GTPγS nucleotides and test compounds (agonists or antagonists) were pre-mixed and prepared 4× to obtain the final concentrations in the wells mentioned in the graphs. […]
The plates were incubated at 21° C. for 3 h or 20 h and then the HTRF signal was measured on the PHERAstar reader (BMG Labtech) with the following configuration: • Module: HTRF (Excitation 337nm, Emission 665nm and 620nm) • Excitation: laser, 40 flashes • Reading window: delays: 60 μs—Integration: 400 μs […]

[3] = target: T1, Delta Opioid GPCR; experiment: Activation test according to format 2A (TR-FRET, empty Galpha vs GTP/GTPγS-bound full form), HEK293 membranes; assay type: biochemical
[4] = test system: Galpha protein; experiment: Binding specificity of detection ligands for the forms of the Galpha protein
Experimental: In order to evaluate the selectivity of antibodies between the different forms of the Galphai1 protein (GDP-bound full form vs. GTPgS-bound full form vs. empty form), the test was performed in parallel on TST-Galphai1 protein conditions pre-incubated in the buffer containing either GDP at 1 μM, GTPgS at 1 μM or no nucleotide. The best hybridomas were then cloned with a limit dilution step to obtain hybridoma clones.
• the anti-Galphai antibody SC13533 was purchased from Santa Cruz Biotechnology (catalogue number SC13533). […] The antibodies were labeled with compatible fluorescent probes for TR-FRET detection (red—d2 acceptor or Lumi4Tb donor).

[5] = target: T2, 5HT1A (Homo sapiens, UniProt P08908); experiment: Activation test format 2B on 5HT1A membranes (Example 7); assay type: biochemical; settings: HEK293 membranes 10 μg/well, GTPγS 100 nM, agonist 1 μM (FIG. 10)
T2 construct: purchased Perkin Elmer RBHS1AM400UA; host or cells: HEK293-EBNA
T2 sequence (P08908 1-422): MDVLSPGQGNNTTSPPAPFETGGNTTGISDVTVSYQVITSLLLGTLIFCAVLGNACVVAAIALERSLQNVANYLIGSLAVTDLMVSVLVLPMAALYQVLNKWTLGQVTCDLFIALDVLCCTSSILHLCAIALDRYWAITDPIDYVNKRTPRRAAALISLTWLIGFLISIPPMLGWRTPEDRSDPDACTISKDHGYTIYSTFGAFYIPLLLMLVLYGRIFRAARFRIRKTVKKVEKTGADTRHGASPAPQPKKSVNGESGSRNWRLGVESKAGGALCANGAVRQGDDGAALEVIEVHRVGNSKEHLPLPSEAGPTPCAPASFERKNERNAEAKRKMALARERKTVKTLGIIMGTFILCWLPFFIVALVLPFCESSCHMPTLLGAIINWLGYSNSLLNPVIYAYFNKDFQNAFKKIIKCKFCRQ
Experimental: as §2, §1

Molecule: Oc1ccc2c3c1O[C@H]1c4[nH]c5ccccc5c4C[C@@]4(O)[C@@H](C2)N(CC2CC2)CC[C@]314 [Naltrindole]
- TR-FRET signal (HTRF ratio), inhibition of agonist activation by antagonist ([1]; Example 9, format 2B, GTPγS 10 nM, antagonist in increasing concentration (FIG. 12B)): increase in the TR-FRET signal
- TR-FRET signal (HTRF ratio), inhibition of agonist activation by antagonist ([1]; Example 10, format 2B, GTPγS 10 nM, antagonist in increasing concentration, FIGS. 13B-18B): increase in the TR-FRET signal
- TR-FRET signal (HTRF ratio), inhibition of agonist activation by antagonist ([1]; format 2B, HEK293 membranes, GTPγS 10 nM, antagonist in increasing concentration, Examples 1-3): increase in the TR-FRET signal
- TR-FRET signal (HTRF ratio), inhibition of agonist activation by antagonist ([2]; SNC162 fixed 10 nM, antagonist in increasing concentration (FIG. 8B)): decrease in the TR-FRET signal
- TR-FRET signal (HTRF ratio), inhibition of agonist activation by antagonist ([3]; GTPγS 10 nM, SNC162 fixed 10 nM, antagonist in increasing concentration (FIG. 9B)): decrease in the TR-FRET signal

Molecule: C=CCN1C[C@H](C)N([C@@H](c2ccccc2)c2ccc(C(=O)N(CC)CC)cc2)C[C@H]1C [SNC162]
- TR-FRET signal (HTRF ratio) generated by stimulation with the agonist ([1]; Example 7, CHO-K1 membranes 10 μg/well, GTPγS 100 nM, agonist 1 μM (FIG. 10)): decrease in the TR-FRET signal
- TR-FRET signal (HTRF ratio) generated by stimulation with the receptor agonist ([1]; Example 7, HEK293 membranes 10 μg/well, GTPγS 100 nM, agonist 1 μM, KB1753-biotin/SA-XL + SC13533-Lumi4Tb (FIG. 10)): decrease in the TR-FRET signal
- TR-FRET signal (HTRF ratio) generated by stimulation with the agonist ([1]; Example 9, format 2B, GTPγS 10 nM, agonist in increasing concentration, DSV36S-Lumi4Tb/SC13533-d2 (FIG. 12B)): decrease in the TR-FRET signal
- TR-FRET signal (HTRF ratio) generated by stimulation with the agonist ([1]; Example 10, format 2B, GTPγS 10 nM, agonist in increasing concentration, sdAb-d2 ligand pairs (FIGS. 13B-19B)): decrease in the TR-FRET signal
- TR-FRET signal (HTRF ratio) generated by stimulation with the agonist ([1]; format 2B, HEK293 membranes, GTPγS 10 nM, agonist in increasing concentration, detection ligand pairs of Examples 1-4 (FIGS. 4B-7B)): decrease in the TR-FRET signal
- TR-FRET signal (HTRF ratio) generated by stimulation with the agonist ([2]; agonist in increasing concentration, DSV39S-d2 + DSV26S-Lumi4Tb (FIG. 8B)): increase in the TR-FRET signal
- TR-FRET signal (HTRF ratio) generated by stimulation with the agonist ([3]; Example 8, GTP 50, 1000 or 20000 nM, agonist 1 μM, membranes 1 μg/well, amplitude lower than with GTPγS (FIG. 11)): increase in the TR-FRET signal
- TR-FRET signal (HTRF ratio) generated by stimulation with the agonist ([3]; Example 8, GTPγS 50, 1000 or 20000 nM, agonist 1 μM, membranes 1 μg/well (FIG. 11)): increase in the TR-FRET signal
- TR-FRET signal (HTRF ratio) generated by stimulation with the agonist ([3]; GTPγS 10 nM, agonist in increasing concentration, DSV39S-d2 + DSV26S-Lumi4Tb (FIG. 9B)): increase in the TR-FRET signal

Molecule: Ser-Ser-Arg-Gly-Tyr-Tyr-His-Gly-Ile-Trp-Val-Gly-Glu-Glu-Gly-Arg-Leu-Ser-Arg (SSRGYYHGIWVGEEGRLSR; also: biotinylated, place not given here) [KB1753, biotinylated form generated by Cisbio Bioassays]
- Form of the Galpha protein specifically bound (empty, GDP-bound, GTP/non-hydrolyzable GTP-bound) [4]: specifically binds the form of the Galpha GTP or GTP protein that is non-hydrolyzable or slowly hydrolyzable relative to the forms of the empty Galpha protein and GDP; also recorded: specifically recognizes the full Galpha protein bound to GTP

Molecule: NCCc1c[nH]c2ccc(O)cc12 [serotonin]
- TR-FRET signal (HTRF ratio) generated by stimulation with the receptor agonist [5]: decrease in the TR-FRET signal

B1: DSV36S: anti-Galphai antibody generated by Cisbio Bioassays (antibody, V domains shown)
VH: EVQLQQSGAELVRPGALVKLSCKASGFNIKDYYMHWVKQRPEQGLEWIGWIDPENGNTIYDPKFQGKASITADTSSNTAYLQLSSLTSEDTAVYYCTRGGGYYSDWYFDVWGAGTTVTVSS
VL: QIVLTQSPAIMSASPGEKVTMTCSASSSVSYMHWYQQKSGTSPKRWIYDTSKLASGVPARFSGSGSGTSYSLTISSMEAEDAATYYCQQWSSNPPITFGAGTKLELK
- Form of the Galpha protein specifically bound (empty, GDP-bound, GTP/non-hydrolyzable GTP-bound) [4]: specifically binds the form of the Galpha GTP or GTP protein that is non-hydrolyzable or slowly hydrolyzable relative to the forms of the empty Galpha protein and GDP
